Data reported in PMC4225846, “The Assessment of Cholinesterase from the Liver of Puntius Javanicus as Detection of Metal Ions” (The Scientific World Journal, 2014).
Read-outs that look alike come from different tables or passages of the source.

System: T1, P. javanicus ChE (cholinesterase from the liver of Puntius javanicus)
T1 construct: gene BCHE
Experiment: Ellman assay (DTNB), […] nm, Michaelis-Menten fit
Type: biochemical, Barbonymus gonionotus
Conditions: 0.1 M sodium phosphate pH 7.0, ambient temperature, 0.1-2.5 mM substrate, 95% confidence interval in brackets

CC(=O)SCC[N+](C)(C)C [ATC, acetylthiocholine iodide]
Km (read-out: ATC): 410 µM

CCCC(=O)SCC[N+](C)(C)C [BTC, S-Butyrylthiocholine iodide]
Km (read-out: BTC): 230 µM

CCC(=O)SCC[N+](C)(C)C [PTC, propionylthiocholine iodide]
Km (read-out: PTC): 830 µM
